≈ marks a conversion by molar mass, not a printed value.
Assays:
[1] = test system: A431 cell xenograft (EGFR wild-type); assay: A431 cell xenograft tumor assay; assay type: in vivo, BALB/c nude mice; conditions: 25 mg/kg, oral, 14 days
Description: Purpose of experiment: A431 xenograft tumor BALB/c nude mice were orally administered (PO) with a substance to be tested for 14 consecutive days. The body weight and tumor size of nude mice were observed and recorded.
Cells were fluid-changed and passaged for one time every 2-3 days and expanded. When the desired amount of cells was achieved, transplantation of cells was performed.
(§1) 40 male BALB/c nude mice, aged 4-5 weeks and weighing 17-23 g, were purchased from Shanghai Bikai, placed in an animal room environment for 2-3 days, and then seeded with cells. Cell suspension was subcutaneously injected at forelimb of the nude mouse rich in capillaries, and each mouse was injected with 0.1 mL of cell suspension.
(§2) Appropriate amount of a substance to be tested was weighed, suspended in 14 mL of DMSO-PEG400 saline solution (DMSO:PEG400:saline=1:30:69) respectively, formulated according to the following table, suspended or dissolved by ultrasonic wave, filled into vials and sealed and reserved in a 4° C. refrigerator for further use.
(§3) The length and width of a tumor and body weight of a mouse were recorded at least twice a week. The tumor size is calculated as V=0.5*length*width*width.

[2] = Pathological analysis of tumor-bearing mice after 14 consecutive days of administration; assay type: in vivo
[3] = test system: A431 cells (EGFR wild type); assay: Inhibitory activity on cell proliferation, A431; assay type: cell-based; conditions: Homo sapiens, A-431; A431, 72 hours; read-out: Inhibitory activity on proliferation of cells (IC50, μM) A431
[4] = test system: H1975 cells (EGFR L858R/T790M); assay: Inhibitory activity on cell proliferation, H1975; assay type: cell-based; conditions: Homo sapiens, NCI-H1975; H1975, 72 hours; read-out: Inhibitory activity on proliferation of cells (IC50, μM) H1975
H1975 cell xenograft = H1975 cell xenograft tumor assay; assay type: in vivo, BALB/c nude mice; conditions: 25 mg/kg
Description: Purpose of experiment: H1975 transplanted BALB/c nude mice were orally administered (PO) with a substance to be tested for 14 consecutive days. The body weight and tumor size of nude mice were observed and recorded.
H1975 cells were obtained from Shanghai Institute of Materia Medica. […] Cells were fluid-changed and passaged for one time every 2-3 days and expanded. When the desired amount of cells was achieved, transplantation of cells was performed.
as §1
as §2, with “sealed,” for “sealed”
as §3

Wild type EGFR = biological target: T1, Wild type EGFR (Homo sapiens, UniProt P00533); assay: Kinase activity test (FRET), wild type EGFR; assay type: biochemical; conditions: wild type EGFR; read-out: Inhibitory activity of EGFR on kinase (IC50, nM) WT
T1 construct: purchased Invitrogen PV3872
T1 sequence (P00533 25-1210): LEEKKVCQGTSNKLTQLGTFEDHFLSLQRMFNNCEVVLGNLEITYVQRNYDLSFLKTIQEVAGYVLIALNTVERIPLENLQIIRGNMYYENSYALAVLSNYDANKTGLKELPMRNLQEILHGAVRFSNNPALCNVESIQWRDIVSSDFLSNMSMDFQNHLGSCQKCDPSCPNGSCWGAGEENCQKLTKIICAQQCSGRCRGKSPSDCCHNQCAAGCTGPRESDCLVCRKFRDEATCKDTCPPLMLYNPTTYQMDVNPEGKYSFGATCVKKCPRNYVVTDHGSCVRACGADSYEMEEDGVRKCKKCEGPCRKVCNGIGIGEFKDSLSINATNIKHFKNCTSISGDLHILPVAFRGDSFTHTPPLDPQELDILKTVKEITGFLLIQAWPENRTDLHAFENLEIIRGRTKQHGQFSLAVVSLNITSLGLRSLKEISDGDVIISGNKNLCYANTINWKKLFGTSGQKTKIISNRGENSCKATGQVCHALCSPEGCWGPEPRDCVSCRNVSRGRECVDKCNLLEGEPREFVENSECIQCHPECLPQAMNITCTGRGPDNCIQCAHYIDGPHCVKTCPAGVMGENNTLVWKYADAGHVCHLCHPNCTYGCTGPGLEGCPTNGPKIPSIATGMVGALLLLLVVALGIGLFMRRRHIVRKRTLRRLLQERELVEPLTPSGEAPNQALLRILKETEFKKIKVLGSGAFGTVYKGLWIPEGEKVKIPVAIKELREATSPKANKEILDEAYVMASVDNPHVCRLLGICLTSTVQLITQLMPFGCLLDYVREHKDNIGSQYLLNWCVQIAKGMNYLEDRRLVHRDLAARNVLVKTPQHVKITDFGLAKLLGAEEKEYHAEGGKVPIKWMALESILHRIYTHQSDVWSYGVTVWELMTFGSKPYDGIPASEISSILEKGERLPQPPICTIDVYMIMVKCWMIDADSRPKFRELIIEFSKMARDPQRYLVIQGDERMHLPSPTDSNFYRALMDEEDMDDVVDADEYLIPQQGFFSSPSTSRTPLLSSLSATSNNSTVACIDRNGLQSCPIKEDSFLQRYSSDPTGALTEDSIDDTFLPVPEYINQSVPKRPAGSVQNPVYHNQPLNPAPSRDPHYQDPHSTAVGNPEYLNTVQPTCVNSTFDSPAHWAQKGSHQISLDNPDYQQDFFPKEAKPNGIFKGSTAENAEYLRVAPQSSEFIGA
Method in brief: (§4)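 FRET assay with coumarin/fluorescein-labelled poly(Glu, Tyr)4:1 peptide and ATP, compounds at 5.1×10^−11 to 1.0×10^−6 mol/L final. Kinase reaction 1.5 h at room temperature, then 1 h development cleaving unphosphorylated peptide.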

EGFR-L858R/T790M = biological target: T2, EGFR-L858R/T790M (Homo sapiens, UniProt P00533, L858R/T790M); assay: Kinase activity test (FRET), EGFR T790M/L858R; assay type: biochemical; conditions: EGFR T790M/L858R; read-out: Inhibitory activity of EGFR on kinase (IC50, nM) T790M/L858R
T2 construct: purchased Invitrogen PV4879
T2 sequence (P00533 25-1210 T790M/L858R): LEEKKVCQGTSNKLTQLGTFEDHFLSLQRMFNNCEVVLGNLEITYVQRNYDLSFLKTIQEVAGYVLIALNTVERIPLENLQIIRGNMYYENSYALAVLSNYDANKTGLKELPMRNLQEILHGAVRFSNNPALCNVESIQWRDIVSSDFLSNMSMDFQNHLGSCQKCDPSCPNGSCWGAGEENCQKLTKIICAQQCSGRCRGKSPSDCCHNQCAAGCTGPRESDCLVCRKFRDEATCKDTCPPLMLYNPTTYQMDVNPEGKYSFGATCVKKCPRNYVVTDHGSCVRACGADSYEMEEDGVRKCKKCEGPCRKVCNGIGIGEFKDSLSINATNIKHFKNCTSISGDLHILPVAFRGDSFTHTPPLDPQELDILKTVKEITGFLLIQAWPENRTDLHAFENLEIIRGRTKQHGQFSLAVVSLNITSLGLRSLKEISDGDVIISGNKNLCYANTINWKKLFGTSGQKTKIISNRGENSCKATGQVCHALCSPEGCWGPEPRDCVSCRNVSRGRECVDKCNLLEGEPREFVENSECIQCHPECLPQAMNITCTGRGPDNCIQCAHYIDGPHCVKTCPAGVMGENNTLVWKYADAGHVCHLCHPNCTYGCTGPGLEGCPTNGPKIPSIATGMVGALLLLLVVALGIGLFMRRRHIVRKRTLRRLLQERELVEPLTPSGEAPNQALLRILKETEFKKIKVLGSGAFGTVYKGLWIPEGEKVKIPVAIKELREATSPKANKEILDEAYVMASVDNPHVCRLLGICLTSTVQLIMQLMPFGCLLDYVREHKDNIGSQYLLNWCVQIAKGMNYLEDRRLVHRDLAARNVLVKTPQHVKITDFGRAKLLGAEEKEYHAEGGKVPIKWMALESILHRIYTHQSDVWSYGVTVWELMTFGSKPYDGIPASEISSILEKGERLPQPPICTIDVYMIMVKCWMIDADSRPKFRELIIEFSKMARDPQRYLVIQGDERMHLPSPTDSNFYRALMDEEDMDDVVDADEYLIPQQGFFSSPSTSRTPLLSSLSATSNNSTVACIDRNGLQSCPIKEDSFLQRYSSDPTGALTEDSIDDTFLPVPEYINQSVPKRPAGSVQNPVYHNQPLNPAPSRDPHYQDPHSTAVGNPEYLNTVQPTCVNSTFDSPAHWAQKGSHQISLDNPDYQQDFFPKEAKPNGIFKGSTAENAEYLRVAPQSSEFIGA
Method in brief: as §4

[5] = Determination of solubility in water (PBS 20 mM, pH 6.8); assay type: physicochemical; conditions: PBS buffer, aqueous buffer, thermodynamic from solid; pH 6.8, 20 mM PBS; read-out: Solubility (pH 6.8, g/mL)
Method in brief: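 Compound suspension filtered (0.22 μm PVDF), diluted in 50% methanol/50% PBS, absorbance read by UV spectrophotometry. Solubility calculated from a standard curve of 0.01–0.05 mg/mL methanol-derived solutions (r > 0.998).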

| IC50 [3] | IC50 [4] | IC50 (Wild type EGFR) | IC50 (EGFR-L858R/T790M) | solubility [5] | melting point | Compound | tumor size in EGFR wild-type A431 cell xenograft model (FIG. 3) [1] | pathology, brain tissue (FIG. 5E) [2] | pathology, heart tissue (FIG. 5G) [2] | pathology, intestine tissue (FIG. 5A) [2] | pathology, kidney tissue (FIG. 5F) [2] | pathology, liver tissue (FIG. 5C) [2] | pathology, lung tissue (FIG. 5B) [2] | pathology, tumor tissue (FIG. 5D) [2] | effect on tumor size in H1975 xenograft (FIG. 2) (H1975 cell xenograft) | tumor recurrence after administration was stopped for 1 month (FIG. 2) (H1975 cell xenograft; H1975 xenograft) |
| --- | --- | --- | --- | --- | --- | --- | --- | --- | --- | --- | --- | --- | --- | --- | --- | --- |
| 3.84 µM | 0.572 µM | 130 nM | 82.2 nM | < 10 µg/mL | 227.5 to 228.5 °C | C=CC(=O)Nc1cccc(-n2c(=O)c(C(C)C)nc3cnc(Nc4cc(C)c(N5CCN(C)CC5)cc4OC)nc32)c1 [Compound 39, N-(3-(6-isopropyl-2-((2-methoxy-5-methyl-4-(4-methyl-1-piperazinyl)phenyl)amino)-7-oxo-8(7H)pteridinyl)phenyl)acrylamide] |  |  |  |  |  |  |  |  |  |  |
| 1.3 µM | 0.262 µM | 6.6 nM | 6.1 nM | < 10 µg/mL | 291.2 to 291.4 °C | C=CC(=O)Nc1cccc(-n2c(=O)c(-c3cc(F)cc(F)c3)nc3cnc(Nc4ccc(N5CCN(C)CC5)cc4OC)nc32)c1 [Compound 55, N-(3-(6-(3,5-difluorophenyl)-2-((2-methoxy-4-(4-methyl-1-piperazinyl)phenyl)amino)-7-oxo-8(7H)pteridinyl)phenyl)acrylamide] |  |  |  |  |  |  |  |  |  |  |
| 2.81 µM | 1.04 µM | 23.4 nM | 20.8 nM | 163 µg/mL (≈ 300 µM) | 187.3 to 188.1 °C | C=CC(=O)Nc1cccc(-n2c(=O)cnc3cnc(Nc4ccc(N5CCN(C)CC5)cc4OCOC)nc32)c1 [Compound 9, N-(3-(2-((2-(methoxymethoxy)-4-(4-methyl-1-piperazinyl)phenyl)amino)-7-oxo-8(7H)-pteridinyl)phenyl)acrylamide] |  |  |  |  |  |  |  |  |  |  |
| 2.39 µM | 2.16 µM | > 10000 nM | 13.3 nM | 43.2 µg/mL (≈ 73.6 µM) | 94.2 to 94.7 °C | C=CC(=O)N1CCC[C@@H](n2c(=O)c(C3CCCCC3)nc3cnc(Nc4ccc(N5CCN(C)CC5)cc4OC)nc32)C1 [Compound 46, (R)-8-(1-acryloyl-3-piperidinyl)-6-cyclohexyl-2-((2-methoxy-4-(4-methyl-1-piperazinyl)phenyl)amino)-7(8H)pteridinone] |  |  |  |  |  |  |  |  |  |  |
| 1.81 µM | 1.56 µM | 343 nM | > 1000 nM | < 10 µg/mL | 208.3 to 209.3 °C | C=CC(=O)N1CCC[C@H](Cn2c(=O)c(-c3ccccc3)nc3cnc(Nc4ccc(N5CCN(C)CC5)cc4OC)nc32)C1 [Compound 44] |  |  |  |  |  |  |  |  |  |  |
| 1.38 µM | 1.05 µM | > 10000 nM | 73.1 nM | > 10 µg/mL | 256.1 to 256.4 °C | C=CC(=O)N1CC[C@H](n2c(=O)c(-c3ccccc3)nc3cnc(Nc4ccc(N(C)CCN(C)C)c(C)c4)nc32)C1 [Compound 40] |  |  |  |  |  |  |  |  |  |  |
| 1.11 µM | 1.24 µM | 2.7 nM | 86.9 nM | 719 µg/mL (≈ 1260 µM) | 117.9 to 118.2 °C | C=CC(=O)N1CC[C@H](n2c(=O)c(C3CCCCC3)nc3cnc(Nc4ccc(N5CCN(C)CC5)cc4OC)nc32)C1 [Compound 50, (S)-8-(1-acryloyl-3-pyrrolidinyl)-6-cyclohexyl-2-((2-methoxy-4-(4-methyl-1-piperazinyl)phenyl)amino)-7(8H)pteridinone] |  |  |  |  |  |  |  |  |  |  |
| 1.26 µM | 1.19 µM | 5350 nM | 38.6 nM | > 10 µg/mL | 260 to 260.2 °C | C=CC(=O)N1CC[C@H](n2c(=O)c(-c3ccccc3)nc3cnc(Nc4ccc(N(C)CCN(C)C)c(OC)c4)nc32)C1 [Compound 41] |  |  |  |  |  |  |  |  |  |  |
| 0.225 µM | 0.378 µM | 20.1 nM | 17.5 nM | 63.3 µg/mL (≈ 112 µM) | 208.3 to 208.8 °C | C=CC(=O)N1CC[C@H](n2c(=O)c(-c3ccccc3)nc3cnc(Nc4ccc(N5CCN(C)CC5)c(OC)c4)nc32)C1 [Compound 35, (S)-8-(1-acryloyl-30pyrrolidinyl)-2-((3-methoxy-4(4-methyl-1-piperazinyl)phenyl)amino)-6-phenyl-7(8H)pteridinone] |  |  |  |  |  |  |  |  |  |  |
| 1.46 µM | 0.044 µM | 1.3 nM | 0.6 nM | < 10 µg/mL | 262.3 to 262.7 °C | C=CC(=O)Nc1cccc(-n2c(=O)c(-c3ccc(F)cc3)nc3cnc(Nc4ccc(N5CCN(C)CC5)cc4OC)nc32)c1 [Compound 52, N-(3-(6-(4-fluorophenyl)-2-((2-methoxy-4-(4-methyl-1-piperazinyl)phenyl)amino)-7-oxo-8(7H)pteridinyl)phenyl)acrylamide] |  |  |  |  |  |  |  |  |  |  |
| 3.68 µM | 0.23 µM | 33 nM | 1.3 nM | 24.5 µg/mL (≈ 42.2 µM) | > 300 °C | C=CC(=O)Nc1cccc(-n2c(=O)c(C(F)(F)F)nc3cnc(Nc4ccc(N5CCN(C)CC5)c(OC)c4)nc32)c1 [Compound 33, N-(3-(2-((3-methoxy-4-(4-methyl-1-piperazinyl)phenyl)amino)-7-oxo-6-(trifluoromethyl)-8(7H)-pteridinyl)phenyl)acrylamide] |  |  |  |  |  |  |  |  |  |  |

| Compound | IC50 [3] | IC50 [4] | IC50 (Wild type EGFR) | IC50 (EGFR-L858R/T790M) | solubility [5] | melting point | tumor size in EGFR wild-type A431 cell xenograft model (FIG. 3) [1] | pathology, brain tissue (FIG. 5E) [2] | pathology, heart tissue (FIG. 5G) [2] | pathology, intestine tissue (FIG. 5A) [2] | pathology, kidney tissue (FIG. 5F) [2] | pathology, liver tissue (FIG. 5C) [2] | pathology, lung tissue (FIG. 5B) [2] | pathology, tumor tissue (FIG. 5D) [2] | effect on tumor size in H1975 xenograft (FIG. 2) (H1975 cell xenograft) | tumor recurrence after administration was stopped for 1 month (FIG. 2) (H1975 cell xenograft; H1975 xenograft) |
| --- | --- | --- | --- | --- | --- | --- | --- | --- | --- | --- | --- | --- | --- | --- | --- | --- |
| C=CC(=O)Nc1cc(Nc2nccc(-c3cn(C)c4ccccc34)n2)c(OC)cc1N(C)CCN(C)C [AZD9291, reference compound] | […] | […] |  |  |  |  | the size of the tumor did not substantially change | normal tissue structure, no pathological change | 1) moderate expansion of myocardial fiber gap in the tissue, as indicated by the black arrow, 2) vacuoles formed in the cytoplasm of the myocardial fibers | inflammatory cell focal infiltration seen in tissue | 1) extensive kidney tubular lumen expansion in tissue, as shown by the black arrow, 2) part of glomerular wall thickening, as shown by the yellow arrow, and 3) visible transparent tube | 1) more severe liver injury, extensive hepatic sinusoids dilatation, as indicated by the black arrow, and 2) visible necrosis in liver tissue | pulmonary congestion, interstitial edema | moderate necrosis of cells in the entire tissues | effectively reduce the size of a tumor | […] |
